Data reported in publication PMC10154249, “Unique progerin C-terminal peptide ameliorates Hutchinson–Gilford progeria syndrome phenotype by rescuing BUBR1” (Nature Aging, 2023).

Experiments:
HGADFN003 cells = assay: Effect of UPCP on HGADFN003 senescence after BUBR1 depletion (shBUBR1#3): SA-β-gal, Ki67, aneuploid cells; format: cell-based, human; settings: for Relative percentage of SA-β-gal positive cells: Fig. 5g; for Relative percentage of SA-β-gal positive cells / Relative percentage of Ki67 positive cells / Relative percentage of aneuploid cells: HGADFN003; for Relative percentage of Ki67 positive cells: Fig. 5i; for Relative percentage of aneuploid cells: Fig. 5j
Description: Immunofluorescence was performed as described previously. Cells were plated on cover slips in 12-well plates, left overnight before the treatment. Cells were fixed in 1% formaldehyde in culture medium for 10 min at 37 °C and permeabilized with 0.2% Triton X-100 in PBS for 10 min at room temperature. Cells were washed twice in PBS and blocked for 1 h with 5% BSA in PBS and then incubated with primary antibodies at 4 °C overnight, washed three times in PBS and incubated with secondary antibodies for 1 h at room temperature. Cell nuclei were counterstained with a 500 nM concentration of 4,6-diamidino-2-phenylindole (DAPI) (Sigma). Images were acquired by a fluorescence microscope (OLYMPUS FV-1000, Carl Zeiss LSM880 or Leica DMi8) and analyzed with software NIS-Elements AR v.5.0.1 (Nikon), FLUOVIEW v.4.2b (OLYMPUS), ZEN v.2.3 SP1 (Carl Zeiss) and Leica Application Suite X v.3.6.0.24 (Leica). Cells were quantified by investigators who were blinded to the identity of the analyzed cell.
SA-β-gal staining was performed as previously described. Cells were fixed in 0.5% glutaraldehyde for 15 min at room temperature, washed three times with PBS (pH 6.0) containing 1 mM MgCl2 and exposed overnight 37 °C to containing 1 mg ml^–1 5-bromo-4-chloro-3-indolyl-β-D-galactopyranoside (MCE, catalog no. HY-15934), 0.12 mM potassium ferrocyanide (Sigma, catalog no. P3289), 0.12 mM potassium ferricyanide (Sigma, catalog no. P8131) and 1 mM MgCl2 PBS buffer (pH 6.0). Cells were washed three times with H2O and observed under a microscope (OLYMPUS CKX53). SA-β-gal positive cells were quantified by investigators who were blinded to the identity of the analyzed cell.
For the metaphase chromosome spread assay, 1.5 × 10^6 cells were seeded in a 6 cm dish and incubated for 24 h with fresh medium. Then, colchicine was added to a final concentration of 0.2 μg ml^–1 and the cells were incubated at 37 °C for 2 h. After digestion, we collected and rinsed the cells with PBS. The cells were centrifuged at 160g for 10 min. Then, 1 M KCl was added to a final concentration of 0.075 mol l^–1 and the samples were incubated at 37 °C for 20 min. The cells were centrifuged, and the supernatant aspirated. The pellet was resuspended, and 1 ml methanol:glacial acetic acid (3:1) solution was added. The sample was rested at room temperature for 10 min. Then, the cells were centrifuged at 160g for 10 min. The supernatant was aspirated, and the pellet resuspended in 1 ml fixative for 30 min. The cells were centrifuged and the pellet was suspended in 1 ml fixative again for 30 min. The cells were centrifuged at 160g for 10 min and the supernatant aspirated. The pellet was then resuspended in a small volume of fixative (typically less than 500 μl) until the cell suspension appeared lightly milky. A small quantity of the cell suspension was held vertically in a pipette with the end about 10 cm above the slide. A single drop was released from this height onto the slide and allowed to air dry. The cells were then incubated with 500 nM of DAPI (Invitrogen) for 10 min. Slides were examined with an Olympus BX53 fluorescence microscope and the images were captured by using the Olympus IPP v.7.0 software. Aneuploid cells were quantified by investigators who were blinded to the identity of the analyzed cell.

senescent IMR90 cells = assay: CCK8 cell viability of DNA damage-induced senescent IMR90 cells; format: cell-based, human; settings: IMR90, 10 days after bleomycin, doxorubicin, ionizing radiation or etoposide
Description: Fibroblasts from patients with HGPS were obtained from The Progeria Research Foundation Cell and Tissue Bank (http://www.progeriaresearch.org). The following fibroblasts were used: HGADFN003, HGADFN167, HGMDFN090 and HGFDFN168. Human dermal fibroblasts (GM00038 and AG09602) were obtained from Coriell Cell Repository (https://catalog.coriell.org). These cells were characterized by DNA fingerprinting and isozyme detection and were tested by a MycoBlue Mycoplasma Detector (Vazyme Biotech) to exclude mycoplasma contamination before the experiments. […] HGADFN003, HGADFN167, HGMDFN090, HGFDFN168, GM00038 and AG09602 were cultured in DMEM medium with 15% (v/v) fetal bovine serum (VivaCell). […] For bleomycin-induced senescence, IMR90 cells were incubated with the culture medium containing 20 μg ml^–1 Bleomycin (Selleck, catalog no. S1214) for 2 h and analyzed 10 days later, or as otherwise indicated. For doxorubicin-induced senescence, IMR90 cells were treated twice with 100 nM Doxorubicin (Selleck, catalog no. S1208) with a 2 day interval and analyzed 10 days later, or as otherwise indicated. For ionizing radiation (IR)-induced senescence, IMR90 cells were exposed to 10 Gy Gamma rays, and analyzed 10 days later, or as otherwise indicated, the control IMR90 cells were mock irradiated. […]
Cell viability was assessed using the Cell Counting Kit-8 (CCK8) (APE, catalog no. k1018). […]

Substance: H-YGRKKRRQRRRYNLRSRTVLCGTCGQPADKASASGSGAQSPQNCSIM-OH (cysteines drawn unpaired) [UPCP, unique progerin C-terminal peptide]
- Relative percentage of SA-β-gal positive cells (HGADFN003 cells; UPCP+shBUBR1#3, P=0.0068 vs Mock, 0.0058 vs UPCP, replicate 1): 38%
- Relative percentage of SA-β-gal positive cells (HGADFN003 cells; UPCP+shBUBR1#3, P=0.0068 vs Mock, 0.0058 vs UPCP, replicate 2): 35%
- Relative percentage of SA-β-gal positive cells (HGADFN003 cells; UPCP+shBUBR1#3, P=0.0068 vs Mock, 0.0058 vs UPCP, replicate 3): 41%
- Relative percentage of SA-β-gal positive cells (HGADFN003 cells; UPCP, Mock 48, 52, 55, P=0.0005 vs Mock, replicate 1): 25%
- Relative percentage of SA-β-gal positive cells (HGADFN003 cells; UPCP, Mock 48, 52, 55, P=0.0005 vs Mock, replicate 2): 28%
- Relative percentage of SA-β-gal positive cells (HGADFN003 cells; UPCP, Mock 48, 52, 55, P=0.0005 vs Mock, replicate 3): 29%
- Relative percentage of Ki67 positive cells (HGADFN003 cells; UPCP+shBUBR1#3, P=0.0314 vs Mock, 0.0222 vs UPCP, replicate 1): 52%
- Relative percentage of Ki67 positive cells (HGADFN003 cells; UPCP+shBUBR1#3, P=0.0314 vs Mock, 0.0222 vs UPCP, replicate 2): 49%
- Relative percentage of Ki67 positive cells (HGADFN003 cells; UPCP+shBUBR1#3, P=0.0314 vs Mock, 0.0222 vs UPCP, replicate 3): 43%
- Relative percentage of Ki67 positive cells (HGADFN003 cells; UPCP, Mock 35, 41, 37, P=0.0029 vs Mock, replicate 1): 65%
- Relative percentage of Ki67 positive cells (HGADFN003 cells; UPCP, Mock 35, 41, 37, P=0.0029 vs Mock, replicate 2): 58%
- Relative percentage of Ki67 positive cells (HGADFN003 cells; UPCP, Mock 35, 41, 37, P=0.0029 vs Mock, replicate 3): 71%
- Relative percentage of aneuploid cells (HGADFN003 cells; UPCP+shBUBR1#3, P=0.0641 vs Mock, 0.0036 vs UPCP, replicate 1): 25%
- Relative percentage of aneuploid cells (HGADFN003 cells; UPCP+shBUBR1#3, P=0.0641 vs Mock, 0.0036 vs UPCP, replicate 2): 27%
- Relative percentage of aneuploid cells (HGADFN003 cells; UPCP+shBUBR1#3, P=0.0641 vs Mock, 0.0036 vs UPCP, replicate 3): 24%
- Relative percentage of aneuploid cells (HGADFN003 cells; UPCP, Mock 28, 36, 31, P=0.005 vs Mock, replicate 1): 19%
- Relative percentage of aneuploid cells (HGADFN003 cells; UPCP, Mock 28, 36, 31, P=0.005 vs Mock, replicate 2): 16%
- Relative percentage of aneuploid cells (HGADFN003 cells; UPCP, Mock 28, 36, 31, P=0.005 vs Mock, replicate 3): 18%
- senescence remission by UPCP after BUBR1 depletion (HGADFN003 cells; HGADFN003, BUBR1 shRNA (shBUBR1#3)): depletion of BUBR1 significantly antagonized the senescence remission mediated by UPCP
- proliferation of DNA damage-induced senescent cells (senescent IMR90 cells): did not cause DNA damage-induced senescent cells to proliferate
